These results are taken from patent US8524257B2, “Menthol-containing solids composition” (Symrise AG, priority 2005, dated 2013).

A short description of data set [1]: Dissolving test in ethanol/water, time to complete dissolution. It counts as physicochemical. To be noted: 5 g in 95 g ethanol/water (equal parts by weight), 20° C., stirred, visual determination. Here is the method:
The different rates of dissolution of a solids composition according to the invention of Example 1a above and of forms of l-menthol that are not in accordance with the invention were compared.
To this end, 5 g of l-menthol or 5 g of the l-menthol-containing solids composition according to the invention of Example 1a were added to 95 g of a mixture, kept at a constant temperature of 20° C., of equal parts by weight of ethanol and water, and the time taken for the menthol or the menthol-containing solids composition to dissolve completely (visual determination) was calculated.
The dissolving test was carried out in a glass beaker having a diameter of 5 cm and a filling height of 7 cm. The contents of the glass beaker were stirred during the dissolving test in each case using a magnetic stirring bead having a length of 4 cm with a magnetic stirrer speed of 4 revolutions per second. The temperature was monitored with a Pt-100 thermometer which was immersed to a depth of 5 cm in the liquid, was located at a distance of 1 cm from the wall of the glass beaker and at the same time served as flow breaker.
The size of the crystals corresponded to the typical (commercial) crystal geometry of natural l-menthol.

For data set [2] the following is noted: cited from earlier work.

For the compound `CC(C)[C@@H]1CC[C@@H](C)C[C@H]1O` [Menthol pellets according to WO 03/101924, Example 1] [l-menthol], the “Time to complete dissolution” value in data set [1] was determined as 504 s. Consider `CC(C)[C@@H]1CC[C@@H](C)C[C@H]1O` [flaked l-menthol, l-menthol], for which, in data set [2] (after 24 hours, as described in U.S. Pat. No. 3,064,311), the adhesion and clumping entry is “adhesion and clumping of the flakes”.

With `CC(C)[C@@H]1CC[C@@H](C)C[C@H]1O` [Menthol crystals from Example 1, l-menthol], in data set [1], the “Time to complete dissolution” value was 170 s.

With `CC(C)[C@@H]1CC[C@@H](C)C[C@H]1O` [Crystals of natural menthol, l-menthol], the “Time to complete dissolution” value in data set [1] was 255 s. On the same count and under the same terms, next, `CC(C)[C@@H]1CC[C@@H](C)C[C@H]1O` [Clumped menthol crystals, l-menthol]: 280 s. On to `CC1CCC(C(C)C)C(O)C1` (stereo not drawn) [menthol pressed articles, menthol], for which the clumping and caking result in data set [2] (stored for prolonged periods of over three months) was “gradually clump and cake together”.
